Assay results as given in patent US20110027178A1, “IMAGING THE CENTRAL NERVOUS SYSTEM” (priority 2008, published 2011).

Biological target: T1, P2X7 receptor (Homo sapiens, UniProt Q99572)
T1 construct: expressed in transfected cells; host or cells: HEK.293 cells, transient transfection
T1 sequence (Q99572 1-595): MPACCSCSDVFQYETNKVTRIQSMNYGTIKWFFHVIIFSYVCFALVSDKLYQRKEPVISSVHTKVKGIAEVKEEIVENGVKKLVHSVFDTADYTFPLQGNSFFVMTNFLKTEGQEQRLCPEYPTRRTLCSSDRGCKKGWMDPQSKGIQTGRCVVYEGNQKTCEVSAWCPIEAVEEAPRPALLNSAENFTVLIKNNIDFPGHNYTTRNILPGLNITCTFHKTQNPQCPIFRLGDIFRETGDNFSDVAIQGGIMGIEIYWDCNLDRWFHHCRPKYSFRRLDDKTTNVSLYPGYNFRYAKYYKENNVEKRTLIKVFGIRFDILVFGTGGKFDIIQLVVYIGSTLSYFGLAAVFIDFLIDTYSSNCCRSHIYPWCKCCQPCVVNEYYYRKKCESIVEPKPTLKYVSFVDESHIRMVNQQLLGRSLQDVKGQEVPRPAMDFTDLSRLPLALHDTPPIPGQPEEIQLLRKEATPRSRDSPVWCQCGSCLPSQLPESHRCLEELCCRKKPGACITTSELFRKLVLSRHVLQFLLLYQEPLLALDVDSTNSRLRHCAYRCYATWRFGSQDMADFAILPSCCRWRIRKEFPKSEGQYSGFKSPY
Test: Pore-forming assay (Yo Pro-1 dye uptake), P2X7 receptor functional assay
Format: cell-based
Conditions: P2X7 transfected HEK.293 cells, Bz-ATP 30 μM, Yo Pro-1 1 μM, triplicate
From the text: Non-radioactive versions of the Imaging Agents illustrated in Table I were screened in a P2X7 receptor functional assay. This assay is described in Example 9 and is based upon the ability of the P2X7 receptor to form a non-selective pore in P2X7 transfected HEK.293 cells upon activation with an agonist, thereby allowing dye to permeate the cells. The non selective P2X channel antagonist used as a reference inhibitor for the evaluation of the non-radioactive compound of the invention was pyridoxal-phosphate-6-azophenyl-2′,4′-disulfonate (PPADS), and the results of the assay are provided in Table I above.
The assay method used was based on the ability of the DNA binding dye, Yo Pro-1 (quinolinium, 4[3-methyl-2(3H)-benzoxazolylidene) methyl]-1-[3-(trimethyl-ammonio) propyl]-[…]) to enter through the dilated or “large pore form” of the P2X7 receptor and to bind to intracellular DNA/RNA whereupon it increases fluorescence intensity. Yo Pro-1 was therefore used to quantify inhibition of P2X7 function. This assay was based on the methods published by Michel et al., (B.J. Pharmacol 1998; 125: 1194-1201).
Initially, HEK.293 cells were transiently transfected using LipofectamineTMLTX (Invitrogen) for 72 hrs with P2X7 cDNA. 48 hours prior to use the cells were seeded into poly-D-lysine coated 96-well black-walled, clear bottomed plates, at a density of 30,000 cells/well. Stock solutions of each test compound were prepared at a concentration of 40 mM in 100% DMSO
Following the 48 hour incubation the culture medium was removed from the transfected cells, the cells were washed once and placed in pre-warmed sucrose assay buffer (Sucrose: 280 mM, KCl: 5 mM, CaCl2: 0.5 mM, glucose: 10 mM, HEPES: 10 mM, N-methyl-D-glucamine: 10 mM; pH7.4). The test compounds were added to the plate at a concentration of 10 μM and 100 nM in triplicate and incubated at 37° C. for 30 minutes. The final DMSO concentration in the assay was 1%. After this time Yo Pro-1 dye and Bz-ATP solution was added at concentrations of 1 μM and 30 μM respectively for 60 minutes at 37° C. The fluorescence was then read at 485 nm excitation and 530 nm emission.
The non-selective P2X channel antagonist PPADS was used as a reference inhibitor in the assay. A dose-response to PPADS was performed on the assay plate using a starting concentration of 200 μM followed by a 1 in 6 serial dilution covering 200 μM to 0.4 nM. For each compound data set, a percentage inhibition value was calculated based on the three assay points generated.

Row | Compound | % Inhibition (test compound 100 nM) [%] | % Inhibition (test compound 10 μM) [%]
1 | O=C1CSC(=O)N1C(CCc1ccncc1)COc1ccc(-c2cc([N+](=O)[O-])ccc2F)cc1 (stereo not drawn) [Non-radioactive Imaging Agent 2, 3-[1-(2′-Fluoro-5′-nitro-biphenyl-4-yloxymethyl)-3-pyridin-4-yl-propyl]-thiazolidine-2,4-dione] | 22.0 | 72.0
2 | O=C(CC12CC3CC(CC(C3)C1)C2)Nc1cccc2nc(NCCNCCOCC[18F])ccc12 [Non-radioactive Imaging Agent 3] | 0.00 | 62.0
3 | [18F]c1ncccc1Cn1nnnc1-c1cccc(Cl)c1Cl [Non-radioactive Imaging Agent 5] | 10.0 | 69.6
